Each structure is given as a SMILES string.

The IC50 is the point on the concentration scale where inhibition reaches its midpoint.

For one experiment, the system named is IMR-5. The experiment in a line: cells. Format: functional, cell-based, Homo sapiens. As to conditions: Homo sapiens, IMR-5; read-out: IC50.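 Note: growth inhibition of human IMR-5 cells, read out with a cell viability assay.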
Description: SANGER: Inhibition of human IMR-5 cell growth in a cell viability assay.
With `C[C@@H](Oc1cc(-c2cnn(C3CCNCC3)c2)cnc1N)c1c(Cl)ccc(F)c1Cl` [CRIZOTINIB], the IC50 is more than 2 µM.

Regarding `NC(=O)c1cccc(-c2cc(Nc3ccc(OC(F)(F)F)cc3)ncn2)c1`, the IC50 was more than 1.28 µM.

The next experiment relates to LB647-SCLC. The experiment in a line: cells. It counts as functional, cell-based, Homo sapiens. As to conditions: Homo sapiens, LB647-SCLC.
Description: SANGER: Inhibition of human LB647-SCLC cell growth in a cell viability assay.
The compound `C[C@@H](Oc1cc(-c2cnn(C3CCNCC3)c2)cnc1N)c1c(Cl)ccc(F)c1Cl` [CRIZOTINIB] came in with an IC50 of more than 2 µM.

Take `NC(=O)c1cccc(-c2cc(Nc3ccc(OC(F)(F)F)cc3)ncn2)c1`: the IC50 is more than 1.28 µM.

The test system of the next experiment is REH. The experiment in a line: cells. It counts as functional, cell-based, Homo sapiens. As to conditions: Homo sapiens, REH.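 Note: growth inhibition of REH cells determined with a cell viability read-out.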
Description: SANGER: Inhibition of human REH cell growth in a cell viability assay.
With `C[C@@H](Oc1cc(-c2cnn(C3CCNCC3)c2)cnc1N)c1c(Cl)ccc(F)c1Cl` [CRIZOTINIB], the IC50 is more than 2 µM.

On to `NC(=O)c1cccc(-c2cc(Nc3ccc(OC(F)(F)F)cc3)ncn2)c1`, for which the IC50 is more than 1.28 µM.

The next experiment relates to NB17. The experiment in a line: cells. It counts as functional, cell-based, Homo sapiens. As to conditions: Homo sapiens, NB17.
Description: SANGER: Inhibition of human NB17 cell growth in a cell viability assay.
`C[C@@H](Oc1cc(-c2cnn(C3CCNCC3)c2)cnc1N)c1c(Cl)ccc(F)c1Cl` [CRIZOTINIB] gave an IC50 of more than 2 µM.

With `NC(=O)c1cccc(-c2cc(Nc3ccc(OC(F)(F)F)cc3)ncn2)c1`, the IC50 is more than 1.28 µM.

A further experiment has as its system LC4-1. Description: cells. Format: functional, cell-based, Homo sapiens. Conditions: Homo sapiens, LC4-1.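 Note: growth inhibition of LC4-1 cells, read out with a cell viability assay.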
Description: SANGER: Inhibition of human LC4-1 cell growth in a cell viability assay.
With `C[C@@H](Oc1cc(-c2cnn(C3CCNCC3)c2)cnc1N)c1c(Cl)ccc(F)c1Cl` [CRIZOTINIB], the IC50 was more than 2 µM.

With `NC(=O)c1cccc(-c2cc(Nc3ccc(OC(F)(F)F)cc3)ncn2)c1`, the IC50 is more than 1.28 µM.

For another experiment, the system named is Kasumi 1. Description: cells. It counts as functional, cell-based, Homo sapiens. Conditions: Homo sapiens, Kasumi 1.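 Note: growth inhibition of human Kasumi-1 cells, read out by a cell viability assay.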
Description: SANGER: Inhibition of human KASUMI-1 cell growth in a cell viability assay.
Regarding `C[C@@H](Oc1cc(-c2cnn(C3CCNCC3)c2)cnc1N)c1c(Cl)ccc(F)c1Cl` [CRIZOTINIB], the IC50 was more than 2 µM.

In turn, `NC(=O)c1cccc(-c2cc(Nc3ccc(OC(F)(F)F)cc3)ncn2)c1` yielded an IC50 of more than 1.28 µM.

For another experiment, the system named is SU-DHL-1. The experiment in a line: SANGER: Inhibition of human SU-DHL-1 cell growth in a cell viability assay. It counts as functional, cell-based. Conditions: Homo sapiens, SU-DHL-1.
`C[C@@H](Oc1cc(-c2cnn(C3CCNCC3)c2)cnc1N)c1c(Cl)ccc(F)c1Cl` [CRIZOTINIB] came in with an IC50 of 0.337 µM.

With `NC(=O)c1cccc(-c2cc(Nc3ccc(OC(F)(F)F)cc3)ncn2)c1`, the IC50 was more than 1.28 µM.

The subject of another experiment is NB7. Description: cells. As to conditions: Homo sapiens, NB7. It counts as functional, cell-based, Homo sapiens.
Description: SANGER: Inhibition of human NB7 cell growth in a cell viability assay.
Consider `C[C@@H](Oc1cc(-c2cnn(C3CCNCC3)c2)cnc1N)c1c(Cl)ccc(F)c1Cl` [CRIZOTINIB], for which the IC50 is more than 2 µM.

As to `NC(=O)c1cccc(-c2cc(Nc3ccc(OC(F)(F)F)cc3)ncn2)c1`, the IC50 was more than 1.28 µM.

The test system of another experiment is NB1. Description: cells. It counts as functional, cell-based, Homo sapiens. Conditions: Homo sapiens, NB1.
Description: SANGER: Inhibition of human NB1 cell growth in a cell viability assay.
Compound `C[C@@H](Oc1cc(-c2cnn(C3CCNCC3)c2)cnc1N)c1c(Cl)ccc(F)c1Cl` [CRIZOTINIB] registered an IC50 of 0.092 µM.

For the compound `NC(=O)c1cccc(-c2cc(Nc3ccc(OC(F)(F)F)cc3)ncn2)c1`, the IC50 is more than 1.28 µM.

In a further experiment the test system is NCI-H748. Description: cells. Conditions: Homo sapiens, NCI-H748. It counts as functional, cell-based, Homo sapiens.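 Note: growth inhibition of NCI-H748 cells, measured by a cell viability assay.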
Description: SANGER: Inhibition of human NCI-H748 cell growth in a cell viability assay.
Compound `C[C@@H](Oc1cc(-c2cnn(C3CCNCC3)c2)cnc1N)c1c(Cl)ccc(F)c1Cl` [CRIZOTINIB] had an IC50 of more than 2 µM.

Compound `NC(=O)c1cccc(-c2cc(Nc3ccc(OC(F)(F)F)cc3)ncn2)c1` showed an IC50 of more than 1.28 µM.

A further experiment deals with BC-3. Description: cells. Format: functional, cell-based, Homo sapiens. Conditions: Homo sapiens, BC-3.
Description: SANGER: Inhibition of human BC-3 cell growth in a cell viability assay.
In turn, `C[C@@H](Oc1cc(-c2cnn(C3CCNCC3)c2)cnc1N)c1c(Cl)ccc(F)c1Cl` [CRIZOTINIB] came in with an IC50 of more than 2 µM.

Compound `NC(=O)c1cccc(-c2cc(Nc3ccc(OC(F)(F)F)cc3)ncn2)c1` came in with an IC50 of more than 1.28 µM.

Another experiment has as its system CESS. Description: SANGER: Inhibition of human CESS cell growth in a cell viability assay. It counts as functional, cell-based. Conditions: Homo sapiens, CESS.
As to `C[C@@H](Oc1cc(-c2cnn(C3CCNCC3)c2)cnc1N)c1c(Cl)ccc(F)c1Cl` [CRIZOTINIB], the IC50 is more than 2 µM.

Take `NC(=O)c1cccc(-c2cc(Nc3ccc(OC(F)(F)F)cc3)ncn2)c1`: the IC50 is more than 1.28 µM.

The subject of the next experiment is CPC-N. Description: cells. It counts as functional, cell-based, Homo sapiens. As to conditions: Homo sapiens, CPC-N.
Description: SANGER: Inhibition of human CPC-N cell growth in a cell viability assay.
In turn, `C[C@@H](Oc1cc(-c2cnn(C3CCNCC3)c2)cnc1N)c1c(Cl)ccc(F)c1Cl` [CRIZOTINIB] returned an IC50 of more than 2 µM.

As for `NC(=O)c1cccc(-c2cc(Nc3ccc(OC(F)(F)F)cc3)ncn2)c1`, the IC50 is more than 1.28 µM.

The next experiment deals with NCI-H716. The experiment in a line: cells. It counts as functional, cell-based, Homo sapiens. As to conditions: Homo sapiens, NCI-H716.
Description: SANGER: Inhibition of human NCI-H716 cell growth in a cell viability assay.
The compound `C[C@@H](Oc1cc(-c2cnn(C3CCNCC3)c2)cnc1N)c1c(Cl)ccc(F)c1Cl` [CRIZOTINIB] showed an IC50 of more than 2 µM.

For the compound `NC(=O)c1cccc(-c2cc(Nc3ccc(OC(F)(F)F)cc3)ncn2)c1`, the half-maximal inhibitory concentration (IC50) is more than 1.28 µM.

In a further experiment the test system is NCI-H1694. Description: cells. Format: functional, cell-based, Homo sapiens. As to conditions: Homo sapiens, NCI-H1694.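 Note: cell viability assay measuring inhibition of growth in human NCI-H1694 cells.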
Description: SANGER: Inhibition of human NCI-H1694 cell growth in a cell viability assay.
In turn, `C[C@@H](Oc1cc(-c2cnn(C3CCNCC3)c2)cnc1N)c1c(Cl)ccc(F)c1Cl` [CRIZOTINIB] gave an IC50 of more than 2 µM.

Compound `NC(=O)c1cccc(-c2cc(Nc3ccc(OC(F)(F)F)cc3)ncn2)c1` came in with an IC50 of more than 1.28 µM.

The next experiment relates to JIYOYE. The experiment in a line: cells. As to conditions: Homo sapiens, JIYOYE. It counts as functional, cell-based, Homo sapiens.
Description: SANGER: Inhibition of human JiyoyeP-2003 cell growth in a cell viability assay.
For the compound `C[C@@H](Oc1cc(-c2cnn(C3CCNCC3)c2)cnc1N)c1c(Cl)ccc(F)c1Cl` [CRIZOTINIB], the IC50 is more than 2 µM.

For the compound `NC(=O)c1cccc(-c2cc(Nc3ccc(OC(F)(F)F)cc3)ncn2)c1`, the IC50 is more than 1.28 µM.

The subject of a further experiment is NCI-H1436. Description: cells. It counts as functional, cell-based, Homo sapiens. Conditions: Homo sapiens, NCI-H1436.
Description: SANGER: Inhibition of human NCI-H1436 cell growth in a cell viability assay.
`C[C@@H](Oc1cc(-c2cnn(C3CCNCC3)c2)cnc1N)c1c(Cl)ccc(F)c1Cl` [CRIZOTINIB]: the IC50 is more than 2 µM.

`NC(=O)c1cccc(-c2cc(Nc3ccc(OC(F)(F)F)cc3)ncn2)c1` yielded an IC50 of more than 1.28 µM.

In another experiment the test system is KARPAS-422. Description: cells. It counts as functional, cell-based, Homo sapiens. As to conditions: Homo sapiens, KARPAS-422.
Description: SANGER: Inhibition of human KARPAS-422 cell growth in a cell viability assay.
For `C[C@@H](Oc1cc(-c2cnn(C3CCNCC3)c2)cnc1N)c1c(Cl)ccc(F)c1Cl` [CRIZOTINIB], the IC50 was more than 2 µM.

Compound `NC(=O)c1cccc(-c2cc(Nc3ccc(OC(F)(F)F)cc3)ncn2)c1` showed an IC50 of more than 1.28 µM.

In another experiment the test system is RPMI-6666. Description: cells. Format: functional, cell-based, Homo sapiens. As to conditions: Homo sapiens, RPMI-6666.
Description: SANGER: Inhibition of human RPMI-6666 cell growth in a cell viability assay.
As to `C[C@@H](Oc1cc(-c2cnn(C3CCNCC3)c2)cnc1N)c1c(Cl)ccc(F)c1Cl` [CRIZOTINIB], the IC50 was more than 2 µM.

`NC(=O)c1cccc(-c2cc(Nc3ccc(OC(F)(F)F)cc3)ncn2)c1`: the IC50 was more than 1.28 µM.

A further experiment deals with EB-3. The experiment in a line: cells. Format: functional, cell-based, Homo sapiens. Conditions: Homo sapiens, EB-3.
Description: SANGER: Inhibition of human EB-3 cell growth in a cell viability assay.
The compound `C[C@@H](Oc1cc(-c2cnn(C3CCNCC3)c2)cnc1N)c1c(Cl)ccc(F)c1Cl` [CRIZOTINIB] showed a half-inhibitory concentration (IC50) of more than 2 µM.

For the compound `NC(=O)c1cccc(-c2cc(Nc3ccc(OC(F)(F)F)cc3)ncn2)c1`, the IC50 is more than 1.28 µM.

The test system of the next experiment is BC1 cell line. Description: SANGER: Inhibition of human BC-1 cell growth in a cell viability assay. Conditions: Homo sapiens, BC1. It counts as functional, cell-based.
`C[C@@H](Oc1cc(-c2cnn(C3CCNCC3)c2)cnc1N)c1c(Cl)ccc(F)c1Cl` [CRIZOTINIB] gave an IC50 of more than 2 µM.

Compound `NC(=O)c1cccc(-c2cc(Nc3ccc(OC(F)(F)F)cc3)ncn2)c1` came in with an IC50 of more than 1.28 µM.

Values taken from ChEMBL document CHEMBL1201861, “Genomics of Drug Sensitity in Cancer screening data, Wellcome Trust Sanger Institute”.
